These molecules were tested on Human epidermal keratinocytes (assay: in vitro scratch-wound assay (keratinocyte migration)). Settings: primary human epidermal keratinocytes, 24 h pre-culture with active, 24 h further culture, wound area ratio divided by control (control = 1), active level wt % of medium.
Format: cell-based
Procedure: The migration of epidermal keratinocytes is the basis for skin re-epithelialization during wound healing. The in vitro scratch-wound assay using monolayers of primary human epidermal keratinocytes is a straightforward and effective method to assess the migratory capacity. Human epidermal keratinocytes (lot.: Ep21012001, Biocell) were seeded into 6-well plates, at 4.5×10^5 cells per well and maintained in a 37° C. incubator in an atmosphere of 5% of carbon dioxide in EpiLife™ Keratinocyte Medium until the cells reaching 70 to 80% of confluence in the well. Then, the cells were cultured by fresh medium (as control) or fresh medium supplemented with different actives for 24 hours. The cells were scratched by a […] of pipette tip in an identical manner to simulate the formation of wound, and images for the cells were taken immediately to record the wound. The cells were cultured again by identical fresh medium or fresh medium supplemented with different actives at 37° C. for 24 hours and images for the cells were taken again. The ratio of area before and after the further culture were obtained by using the software Image-pro plus. The relative migration rates for difference actives were calculated by dividing the values of control and were summarized in Table 1.

Q: Lysine carboxymethyl cysteinate was tested. Which Relative migration rate did it give?
A: 1.15

Q: `NC(=O)c1cccnc1` [C, Niacinamide] was tested. Which Relative migration rate did it give?
A: 1.08

Q: Which Relative migration rate does the source give for `NC(=O)c1cccnc1` [A, Niacinamide] here?
A: 0.94

Q: Which Relative migration rate does the source give for `NC(=O)c1cccnc1` [B, Niacinamide] here?
A: 1.19

Q: With Lysine carboxymethyl cysteinate [D] as the molecule, how does the Relative migration rate read?
A: 1.04

— patent US20250032387A1, “A PERSONAL CARE OR PHARMACEUTICAL COMPOSITION” (Conopco, Inc., d/b/a UNILEVER, priority 2021, published 2025)
